Patent US20020076393A1, “Method for stimulation of defensin production” (MAGAININ PHARMACEUTICALS, INC., priority 1998, published 2002)

Key:
[1] = system: defensin production in epithelial cells; test: Defensin inducing effect of isoleucine analogs in epithelial cells (FIGS. 6-9); assay type: cell-based; conditions: for defensin induction: epithelial cells, FIGS. 6, 7 and 8
[2] = system: defensin production in MDBK cells; test: Defensin induction in MDBK cells (RNA-PCR / QPCR of β-defensin RNA); assay type: cell-based, bovine; conditions: for effect on defensin production: at concentrations as high as fifty micrograms per milliliter
Experimental: Cell Culture: MDBK (Madin-Darby Bovine Kidney) cells were obtained from the ATCC (Rockville, Md.) and were maintained in growth medium consisting of Eagle's modified essential media with Earle's balanced salt solution, 10% horse serum, 0.10 mM non-essential amino acids and no antibiotics. For stimulation experiments, cells were plated into six well tissue culture plates and maintained for three days in growth medium until cells were almost confluent. The medium was then changed to serum-free epithelial cell growth medium (Clonetics, San Diego, Calif.) and the test material was added to the dish. Twenty-four hours later, the medium was withdrawn and cells were rinsed with phosphate-buffered saline. Total RNA was then isolated using Trizol reagent (Gibco/BRL, Grand Island, N.Y.) according to protocols supplied by the manufacturer. RNA was quantified by measuring the OD260 of each sample.
RNA-Polymerase Chain Reaction: Total RNA was treated with DNase prior to reverse transcription and PCR. The DNase was heat inactivated at 65° C. in the presence of EDTA for ten minutes. Reverse transcription and PCR were performed essentially as described for the GeneAmp RNA PCR kit (Perkin Elmer, Foster City, Calif.). Briefly, approximately 250 nanograms of total RNA was primed with polydT and reverse transcribed with Murine Leukemia Virus reverse transcriptase in a total volume of 16 μL at room temperature for ten minutes and then at 42° C. for an additional fifteen minutes. The reverse transcriptase was heat inactivated at 99° C. for five minutes and the reaction was chilled to 4 degrees C. This reverse transcription reaction was then split in half: one portion was used for amplification of the target defensin RNA, and the other was treated in parallel to determine the β-tubulin RNA level as a control. Additional reagents necessary for the PCR reaction, including appropriate synthetic DNA primers;
were added after splitting the reverse transcription reactions to bring the reaction volumes to 40 μL. The reactions were then subjected to thermal cycling as follows: 95° C. for one minute, 52° C. for one minute, 72° C. for one minute for 30 cycles followed by a single 72° C. incubation for fifteen minutes to allow for extension. The expected 200 base pair β-defensin PCR product was measured by gel electrophoresis or QPCR (Quantitative PCR).
Product Capture for QPCR System: 10 μL of the final PCR mixture was combined with 15 μL of strepavidin bead slurry (Perkin-Elmer, Foster City, Calif.), 21 μL H2O and 4 μL of 10× PCR buffer to yield a 50 μL binding reaction. The binding reactions were incubated at room temperature for fifteen minutes with occasional agitation. One ml of QPCR assay buffer was then added to the reaction. The quantity of PCR product was subsequently measured with the Perkin-Elmer QPCR instrument (Perkin-Elmer, Foster City, Calif.). The amount of defensin product was normalized to endogenous expression in MDBK cells in the absence of any experimental agent.

[3] = system: defensin production in HT-29 cells; test: Defensin induction in the human colon epithelial cell line HT-29; assay type: cell-based; conditions: FIG. 5

With CC[C@H](C)[C@H](N)C(=O)NO [isoleucine hydroxamate] the defensin induction [1] was “inducers of defensin production”.

In the case of COC(=O)[C@@H](N)Cc1ccc(O)cc1 [L-tyrosine methyl ester, reference compound], the “effect on defensin production” value [2] is reported as “no effect”.

With CC[C@@H](C)[C@H](N)C(=O)O [alloisoleucine] the “effectiveness as inducer of defensin production compared with isoleucine” value ([2]; FIG. 4) was “not as effective an inducer”.

In the case of CC(C)[C@H](N)C(=O)O [L-valine], the “effect on defensin production” value [2] is reported as “no effect” and the “stimulation of defensin expression, concentrations compared with isoleucine” value ([1]; FIG. 9) is reported as “stimulates defensin expression at concentrations that are substantially higher than those needed for isoleucine”.

In the case of CC[C@H](C)[C@H](N)C(=O)O [L-isoleucine], the “dose-response effect on defensin production” value ([2]; FIG. 2) is reported as “dose-dependent effect”, the “concentration increasing defensin production, fold less than that of D-isoleucine” value ([2]; L-isoleucine versus D-isoleucine, FIGS. 2 and 3) is reported as “fifty to one-hundred” and the defensin induction [3] is reported as “defensin inducing property”.

With CC[C@H](C)C(=O)C(=O)O [alpha-keto-methylvalerate] the defensin induction [1] was “inducers of defensin production”.
